Data set [1] is described as follows: Real-time stability testing of 2,6-DCQ (solid form, 2-propanol solution). Format: physicochemical. To be noted: for Time remaining stable: room temperature. Here is the method: According to the U.S. Food and Drug Administration guidance, 2,6-DCQ in solid form or solution form (using 2-propanol as the solvent, a common ingredient in antiseptic liquids and hand sanitizers) was kept at room temperature (22 ± 1 °C) and 65 ± 5% of relative humidity for stability testing. The concentrations of 2,6-DCQ at different storage times were determined by an Agilent HPLC equipped with a UV detector at 280 nm. A disinfectant product is considered stable for a certain storage time if its concentration remains ≥90% of the initial concentration.

Data set [2] can be described thus: Degradation of 2,6-DCQ in phosphate-buffered ultrapure water (pH 8.2) in darkness. The class given is physicochemical.
Procedure: For the stability of 2,6-DCQ in aquatic environments, we used seawater because seawater
investigate the effect of chloride ions on the stability of 2,6-DCQ, we have conducted the
degradation experiments of 2,6-DCQ in seawater (pH 8.2) and ultrapure water (added with 4 mM
phosphate buffer at pH 8.2) in darkness.
Lines 185–188 in the revision-marked manuscript, “We also investigated the effect of the high
chloride level in seawater on the degradation of 2,6-DCQ in darkness.

Several values for one entry are separate records, joined by “and”; a condition that tells them apart may be missing. Equal entries are not always repeated.

This note sets out measurements from PMC11161644, “An effective and rapidly degradable disinfectant from disinfection byproducts” (Nature Communications, 2024).

In the case of `O=C1C=C(Cl)C(=O)C(Cl)=C1` [2,6-DCQ, 2,6-dichlorobenzoquinone], the Time remaining stable entry in data set [1] (in 2-propanol) is “over 7 months”; in data set [1] (solid form), “over 36 months”. The C/C0 in data set [1] (solid form, storage time 0 month) was 1; in data set [1] (solid form, storage time 16 month) it was 1.072 and 1.01; in data set [1] (solid form, storage time 36 month), 1.029 and 1.0188; in data set [1] (solution form (2-propanol), storage time 0 month), 1; in data set [1] (solution form (2-propanol), storage time 2.5 month), 0.9898; in data set [1] (solution form (2-propanol), storage time 7 month), 0.9151. The C/C0 came out at 0.8855 in data set [1] (solution form (2-propanol), storage time 10 month) and 0.8301 in data set [1] (solution form (2-propanol), storage time 12.5 month). Besides, the “Ln (C/C0)” value in data set [2] (pH 8.2 in phosphate-buffered water, darkness, 0 h) amounted to 0. Also, in data set [2] (seawater vs phosphate-buffered water, pH 8.2, darkness), the “Effect of chloride ions on degradation” value is “no discernible effect”.
